Source: patent US20260374766A1, “METHODS FOR TREATING CANCER” (Antares Therapeutics, Inc., priority 2022, published 2026)
Where a name gives a salt, the structure may show the parent alone. Read-outs that look alike come from different tables or passages of the source.

Assays:
[1] = target: T1, p53 Y220C mutant protein (amino acid residues 94-293) (Homo sapiens, UniProt P04637, Y220C); assay: Thermal Shift Assay (TSA), dTM; type: binding; settings: for ΔTm at 10 µM: 10 uM compound; for ΔTm at 100 µM: 100 uM compound, read-out: TSA P53 Y220C dTM (100 uM)
T1 construct: p53 Y220C mutant protein (amino acid residues 94-293)
Procedure: Thermal Shift Assay (TSA) Protocol
5 μM recombinant p53 Y220C mutant protein (amino acid residues 94-293) was incubated with 10 μM or 100 μM compound for 3 hours at 20 °C in buffer containing 20 mM HEPES, pH7.4, 100 mM NaCl, 0.01% Pluronic F-127, and 1% DMSO in the presence of 400-fold diluted Sypro Orange (ThermoFisher Scientific catalog number 4461146), on a 384-well PCR plate (Applied Biosystems catalog number 4483285). The volume was 5 μL/well. The sealed plate was then loaded onto a QuantStudio 7 Flex instrument for melting temperature (TM) measurement. The temperature was increased from 30 °C to […], at a rate of 0.03 °C/second. Data were fit into a Boltzmann two-state model to determine the TM.

p53 Y220C = p53 Y220C (Homo sapiens, UniProt P04637, Y220C); assay: Luciferase Reporter Assay (Luc), p53 response element, NClH1299 cells with inducible p53 Y220C; type: cell-based; settings: 6 hour; for AC50: read-out: Luc P53 Y220C AC50
Summary of the method: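 Luminescence readout (One-Glo, 5 min shaking at RT, read at once) after 6 h compound exposure; cells pre-induced 24 h with 0.5 ug/mL doxycycline, 5,000/well.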

NUGC3 p53 Y220C = assay: Cell Proliferation Assay (CellTiter-Glo, CTG), NUGC3 p53 Y220C; type: cell-based; settings: Homo sapiens, NUGC-3, 120 h, CellTiter-Glo, NUGC3 p53 Y220C, 5 days
Summary of the method: (§1)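 Tet-One inducible p53 Y220C or R273H constructs were stably introduced into NCI-H1299 by lentiviral transduction; NUGC3 was used as is. Cells (250-500 per well) were exposed to compound for 5 days, then CellTiter-Glo was added for 10 min at room temperature and IC50 was calculated from luminescence.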

H1299 p53 Y220C = assay: Cell Proliferation Assay (CellTiter-Glo, CTG), H1299 p53 Y220C (NClH1299-inducible p53 Y220C); type: cell-based; settings: Homo sapiens, NCI-H1299, 120 h, 5 days
Summary of the method: as §1

H1299 p53 R273H = assay: Cell Proliferation Assay (CellTiter-Glo, CTG), H1299 p53 R273H (NClH1299-inducible p53 R273H); type: cell-based; settings: Homo sapiens, NCI-H1299, 120 h, CellTiter-Glo, H1299 p53 R273H, 5 days
Summary of the method: as §1

[2] = target: T1, p53 Y220C mutant protein (amino acid residues 94-293); assay: Surface Plasmon Resonance (SPR) assay, Kd_kinetic; type: binding; settings: SPR, p53 Y220C, read-out: SPR P53 Y220C KD kinetic
Summary of the method: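 Kinetic dissociation constants derived by 1:1 model fit of SPR data acquired at 16 or 20 °C, pH 7.5 Tris/NaCl running buffer with 1% DMSO.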

[3] = thermal shift, read-out: TSA P53 Y220C dTM (10 uM)
[4] = luciferase reporter, NClH1299 inducible p53 Y220C, 10 uM tool compound as positive control
[5] = luciferase reporter, NClH1299 inducible p53 Y220C

Structure (SMILES)	ΔTm at 100 µM ([1]; thermal shift)	Emax (p53 Y220C; [4])	AC50 (p53 Y220C; [5])	IC50 (NUGC3 p53 Y220C)	IC50 (H1299 p53 Y220C; CellTiter-Glo, H1299 p53 Y220C)	IC50 (H1299 p53 R273H)	further results
CNC(=O)c1ccc(NCC#Cc2nc3c(N[C@@H]4CCN(C)C[C@@H]4F)cccn3c2SC(F)(F)F)c(OC)c1 [Example 28, 4-{[3-(8-{[(3S,4R)-3-fluoro-1-methylpiperidin-4-yl]amino}-3-[(trifluoromethyl)sulfanyl]imidazo[1,2-a]pyridin-2-yl)prop-2-yn-1-yl]amino}-3-methoxy-N-methylbenzamide, formic acid salt]	≥ 10 °C	80 to 90%	< 750 nM	< 750 nM	< 750 nM	8000 to 10000 nM	ΔTm at 10 µM [1, 3]: ≥ 10 °C
COc1cc(S(C)(=O)=O)ccc1NCC#Cc1nc2c(NC3CCN(C)CC3)cc(NC(=O)OC(C)(C)C)cn2c1CC(F)(F)F [Example 31, tert-butyl N-(2-{3-[(4-methanesulfonyl-2-methoxyphenyl)amino]prop-1-yn-1-yl}-8-[(1-methylpiperidin-4-yl)amino]-3-(2,2,2-trifluoroethyl)imidazo[1,2-a]pyridin-6-yl) carbamate]	1 to 5 °C	–	–	–	–	–	–
COc1cc(S(C)(=O)=O)ccc1NCC#Cc1nc2c(NC3CCN(C)CC3)cc(-c3ccccc3)cn2c1CC(F)(F)F [Example 34, N-(2-{3-[(4-methanesulfonyl-2-methoxyphenyl)amino]prop-1-yn-1-yl}-6-phenyl-3-(2,2,2-trifluoroethyl)imidazo [1,2-a]pyridin-8-yl)-1-methylpiperidin-4-amine, formic acid salt]	1 to 5 °C	< 70%	> 3000 nM	1500 to 3000 nM	1500 to 3000 nM	< 5000 nM	–
CNC(=O)c1ccc(NCC#Cc2nc3c(NC4CCN(C)CC4)cc(NC(C)=O)cn3c2CC(F)(F)F)c(OC)c1 [Example 41, 4-[(3-{6-acetamido-8-[(1-methylpiperidin-4-yl)amino]-3-(2,2,2-trifluoroethyl)imidazo[1,2-a]pyridin-2-yl}prop-2-yn-1-yl)amino]-3-methoxy-N-methylbenzamide]	1 to 5 °C	< 70%	> 3000 nM	> 3000 nM	> 3000 nM	≥ 10000 nM	–
C=CC(=O)Nc1cc(NC2CCN(C)CC2)c2nc(C#CCNc3ccc(C(=O)NC)cc3OC)c(CC(F)(F)F)n2c1 [Example 42, 3-methoxy-N-methyl-4-[(3-{8-[(1-methylpiperidin-4-yl)amino]-6-(prop-2-enamido)-3-(2,2,2-trifluoroethyl)imidazo[1,2-a]pyridin-2-yl}prop-2-yn-1-yl)amino]benzamide]	< 1 °C	< 70%	> 3000 nM	> 3000 nM	> 3000 nM	≥ 10000 nM	–
CNC(=O)c1ccc(NCC#Cc2nc3c(N[C@@H]4CCN(CC(C)(C)O)C[C@@H]4F)cccn3c2SC(F)(F)F)c(OC)c1 [Example 164]	–	80 to 90%	< 750 nM	–	< 750 nM	–	Kd ([2]; kinetic KD): < 10 nM; ΔTm at 10 µM [1, 3]: ≥ 10 °C
CNC(=O)c1cnc(OC)c(NCC#Cc2nc3c(N[C@@H]4C[C@H]5CC[C@@H]([C@@H]4F)N5C)cccn3c2SC(F)(F)F)c1 [Example 265]	–	–	–	–	–	–	Kd [2]: < 10 nM; ΔTm at 10 µM ([1]; p53 Y220C, read-out: TSA P53 Y220C dTM): ≥ 10 °C; AC50 (p53 Y220C; AC50, luciferase reporter, NClH1299 inducible p53 Y220C): < 750 nM; Emax (p53 Y220C; Emax, luciferase reporter, NClH1299 inducible p53 Y220C): > 90%; IC50 (H1299 p53 Y220C; NClH1299-inducible p53 Y220C cells, CellTiter-Glo): < 750 nM
[2H]C([2H])([2H])N1CC[C@@H](Nc2cccn3c(SC(F)(F)F)c(C#CCNc4ccc(C(=O)NC)cc4OC)nc23)[C@@H](F)C1 [Example 476, 4-((3-(8-(((3S,4R)-3-fluoro-1-(methyl-d3)piperidin-4-yl)amino)-3-((trifluoromethyl)thio)imidazo[1,2-a]pyridin-2-yl)prop-2-yn-1-yl)amino)-3-methoxy-N-methylbenzamide]	–	–	–	–	–	–	Kd [2]: < 10 nM; ΔTm at 10 µM ([1]; read-out: TSA P53 Y220C dTM): ≥ 10 °C; AC50 (p53 Y220C; AC50, NClH1299 cells with inducible p53 Y220C): < 750 nM; Emax (p53 Y220C; Emax, NClH1299 cells with inducible p53 Y220C, 10 uM tool compound as positive control): > 90%; IC50 (H1299 p53 Y220C; NClH1299-inducible p53 Y220C cells): < 750 nM
